In series [1] the test system is P. falciparum PfeIK1^‐. In words: Effect of compounds on melatonin action on parasitemia, PfeIK1 knockout. Format: cell-based, Plasmodium falciparum. Particulars: 500 nM compound + 100 nM melatonin, 48 h, normalized to control. The procedure:
(§1) To evaluate the effect of the compounds on melatonin action on parasitemia, iRBC were incubated with 500 nM of compounds for 10 minutes and then along with 100 nM of melatonin for 48 hours at 37°C under mixture of gases.
(§2) After 48 hours, iRBC were double‐stained ^34 with nucleic acid marker SYBR Green I (1X) and mitochondria marker, based on membrane potential, MitoTracker Deep Red (50 nM), and incubated for 20 minutes at 37°C.
(§3) Final parasitemia was obtained by flow cytometer using an Accuri C6 flow cytometer (Becton Dickinson), collecting 10^4 cells. Parasitemia was determined by dot plots using FlowJo 5 software.

The subject of series [2] is P. falciparum (3D7). In words: Microscopy evaluation of blood-stage development (Giemsa smears). Format: cell-based, Plasmodium falciparum. Particulars: for parasites in segmented schizont stage: 48 h, 3D7, Giemsa smears. The procedure: Plasmodium falciparum (3D7) cultures were synchronized by three rounds of 5% sorbitol treatment for 1 hour. ^35 Parasites at ring stage with initial 1% parasitemia and 2% hematocrit were incubated with Triptiofen (6) at concentrations of 1 and 10 µM in 24‐well plates for 48 hours at 37°C under mixture of gases. The DMSO solvent (0.1%) was used as a control. Smears of infected erythrocytes stained with Giemsa were performed at regular intervals (0, 12, 24, 36 and 48 hours after treatment). ^36 Parasite images were acquired under a light microscope (Zeiss) with 100× magnification to assess the parasite's blood development stages. The parasitemia at the end of the experiment was quantified for comparison between groups. Three independent experiments were performed in triplicate. Data were analyzed using software GraphPad Prism 6.

The subject of series [3] is Human Embryonic Kidney cells (HEK293). Kind of series: Cytotoxicity Assay in HEK293 cells (MTT). The format is cell-based. Particulars: 0.107 to 110 µM, 72 h. The procedure: To evaluate toxicity of the new indole compounds in mammalian cells, Human Embryonic Kidney cells (HEK293) were maintained in 75 cm^2 culture flasks (Greiner Bio‐One) at 37°C, 5%CO2 in […] (DMEM), supplemented with 10% fetal bovine serum, NaHCO33.7 g/L (Sigma), 100 U/mL penicillin/, and 100 μg/mL streptomycin in monolayers.
Cells were plated in flat‐bottom 96‐well plates in a density of 10^4 cells per well and incubated for 24 hours in 150 µL media at 37°C, 5%CO2. Cells were then treated with different concentrations of each compound, ranging from 0.107 to 110 µM in 200 µL DMEM for 72 hours at 37°C and 5%CO2. Cells treated with DMSO (v/v) with the highest concentration of solvent 0.14% were used as control.
After incubation, 40 µL of MTT reagent (solution 5 mg/mL in PBS) was added to each well, and cells were incubated for further 3 hours at 37°C and 5% CO2. The media were removed and 100 µL of DMSO was added in each well. Plates were agitated in a shaker for 10 minutes to dissolve precipitates. Absorbance was read at 570 nm in a FlexStation 3 (Molecular Devices). Six experiments were performed independently in triplicates.

Series [4] relates to Plasmodium falciparum 3D7. Kind of series: Effect of compounds on melatonin action on parasitemia, 3D7. The following applies: 3D7, 500 nM compound + 100 nM melatonin, 48 h. The format is cell-based. The procedure: as §1, §2, §3
In series [5] the test system is P. falciparum PfeIK1^‐. Kind of series: In vitro growth assay and flow cytometry analysis (72 h), PfeIK1 knockout. Particulars: Plasmodium falciparum, read-out: IC50 (µM) PfelK1^‐ strain. Format: cell-based, Plasmodium falciparum. The procedure:
(§4) Red blood cells infected with P. falciparum 3D7 or PfeIK1^‐ (iRBC) with 0.3 % initial parasitemia and 1% hematocrit were incubated with different concentrations of compounds Tripbenz (4), Triptosil (5), Triptiofen (6), Tripfuroila (7), and Tripcicloexil (8) ranging from 0.107 to 110 µM, and compounds Melatobenz (9), Melatotosil (10), Melatofuroila (11), and Melatocicloexil (12) ranging from 0.1 to 100 µM for 72 hours at 37°C under mixture of gases. The control group was treated with solvent dimethyl sulfoxide (DMSO) (v/v), with the highest concentration of solvent 0.14%. Chloroquine was used as positive control with concentrations ranging from 0.244 to 250 nM. Parasitemia was determined from dot plots (side scatter versus fluorescence) of at least 10^3 cells acquired on a FACSCalibur flow cytometer using […] software (Becton Dickinson) or an Accuri C6 flow cytometer (Becton Dickinson). Initial gating was carried out with unstained, uninfected erythrocytes to account for erythrocyte auto fluorescence. The concentration responsible for 50% inhibition (IC50) was determined from the compound concentration‐response curve determined with the software GraphPad Prism 6.
(§5) For assays with antimalarials, iRBC were incubated with different concentrations of Atovaquone ranging from 0.02 to 24 nM, or Artemisinin 0.15‐160 nM.
(§6) After 72 hours, iRBC were stained with nucleic acid marker SYBR Green I (1X) (Invitrogen) and mitochondria marker based on membrane potential MitoTracker Deep Red (50 nM) (Invitrogen), and incubated for 20 minutes at 37°C. Final parasitemia was obtained by flow cytometer using a BD Accuri C6 Flow Cytometer, collecting 10^4 cells. Parasitemia was determined by dot plots using FlowJo 5 software.
(§7) At least three independent experiments were performed in triplicate to calculate the IC50 values for each drug.

Series [6] has as its system Plasmodium falciparum 3D7. In words: Effect of indole compounds in parasitemia (48 h), 3D7. The format is cell-based. The method, then: (§8) Red blood cells infected (iRBC) with 3D7 or PfeIK1^‐ (iRBC) with 1% initial parasitemia and 2% hematocrit were incubated with 500 nM of the synthetic indole compounds or 100 nM Melatonin for 48 hours at 37°C under mixture of gases. ^12 The control group received 0.0013% of solvent dimethyl sulfoxide (DMSO).
as §2, §3

In series [7] the test system is P. falciparum PfeIK1^‐. In words: Effect of indole compounds in parasitemia (48 h), PfeIK1 knockout. Format: cell-based. Particulars: Plasmodium falciparum, read-out: final parasitemia normalized to control. The procedure:
as §8, §2, §3

Series [8] concerns Plasmodium falciparum 3D7. Kind of series: In vitro growth assay and flow cytometry analysis (72 h), 3D7. The format is cell-based. Particulars: Plasmodium falciparum, 3D7, 72 h, read-out: IC50 (µM) 3D7 strain. The procedure:
as §4, §5, §6, §7

Series [9] has as its system P. falciparum GCaMP3 parasites. Kind of series: Calcium assay in transgenic PfGCaMP3 parasites. The format is cell-based, Plasmodium falciparum. The following applies: 500 nM. The method, then:
Calcium assays were performed using the transgenic P. falciparum GCaMP3 parasites. ^37 PfGCaMP3 cultures were synchronized at least three times with 5% sorbitol before starting the experiments, and parasitemia was maintained between 5% and 8%. PfGCaMP3 parasites were cultivated with 10 nM/mL of WR for selection. Parasites were isolated with saponin (0.016%) and collected by centrifugation 8000 rpm, subsequently washed twice with buffer M, and allowed to settle in a four‐well plate for microscope coated with poly‐L‐lysine for 30 minutes at 37°C with 5% CO2 in buffer M ([…], 5.4 mM KCl, 0.8 mM MgSO4, 5.5 mMD‐glucose, 50 mM MOPS, and 2 mM CaCl2, pH 7.2). The compounds used for measuring calcium assays were as follows: Melatotosil and Triptiofen solubilized in DMSO.
Images were captured using a Nikon Eclipse Ti2 inverted microscope with FITC filter. Images were collected every 10 seconds for 5 minutes, with NIS‐Elements Ar 5.11.01 from Nikon using 60× lens. All experiments were performed at least three independent times in duplicates.

Series [10] relates to pfeik1 gene expression in P. falciparum 3D7. In words: Quantitative real-time PCR of pfeik1 expression. Format: cell-based, Plasmodium falciparum. Particulars: 100 nM melatonin, 4 h. The procedure: For these experiments, P. falciparum 3D7 culture was synchronized with 5% sorbitol and parasites collected in the three stages: ring (14 hours); trophozoite (30 hours); and schizont (44 hours), at 4% parasitemia. Parasites were treated with 100 nM Melatonin or 0.00005% ethanol (control) and left for 4 hours before RNA extraction with Trizol (Invitrogen). RNA purified with ionic exchange columns with DNAse using RNAse‐free DNAse set (Qiagen) and RNeasy Mini Kit (Qiagen) and quantified in a UV‐Vis NanoDrop 2000c (Thermo Scientific). Three independent experiments were performed in triplicates.
cDNA syntheses were performed using random primers and Superscript II reverse transcriptase (Invitrogen) according to the manufacturer’s protocol. SYBR Green (Applied Biosystems) was used in quantitative real‐time PCR on a 7300 Real‐Time PCR System (Applied Biosystems). Amplification was carried out as follow: on step 50°C for 2 min and 95°C for 10 min for enzyme activation followed by 40 cycles of 95°C for 0.15 min for denaturation and 60°C for 1 min for annealing/extension. The primers used were as follows: PF14_0423‐Fwd […] and PF14_0423‐Rvs […].
Changes in relative expression were determined by 2^‐ΔΔCt or transforming the threshold cycle in absolute number of mRNA. […]

As for `O=C(NCCc1c[nH]c2ccccc12)c1ccc(Br)s1` [Triptiofen (6), N‐(2‐(1H‐indol‐3‐yl) ethyl)‐5‐bromothiophene‐2‐carboxamide], the “final parasitemia, compound along with melatonin” value in series [1] came out at 104.1 ± 1.87%. Moreover, the “parasites in segmented schizont stage” value in series [2] (1 µM) was 1.33 ± 0.33; in series [2] (10 µM), 2.22 ± 0.32. In addition, the “number of parasites compared to control” value in series [2] (1 and 10 µM, starting at 36 hours, 3D7) is reported as “significantly reduces”. Besides, the “toxicity in HEK293 cells” value in [3] is given as “no toxicity”. In series [4], the “ability to abolish the increase in parasitemia triggered by melatonin” value is “able to abolish”. For the same compound, the “decrease in parasitemia compared to treatment with the hormone only” value in series [4] was found to be 10%. The “parasitemia normalized to control, compound along with melatonin” value in series [4] was 100.1%. Besides, the concentration for half-maximal inhibition (IC50) in series [5] came out at 11.8 ± 0.6 µM; in [8], 9.76 ± 0.6 µM. The activity at 0.5 µM was 99.8% in [6] (Plasmodium falciparum, 3D7, 500 nM compound, read-out: final parasitemia normalized to control) and 98.7% in [7]. For the same compound, the cytosolic calcium rise entry in [9] (PfGCaMP3) is reported as “does not trigger a significant cytosolic calcium rise”. Besides, the “Fmax/F0 (maximum fluorescence normalized to baseline)” value in series [9] (PfGCaMP3, 120 cells) is recorded as 1.11 ± 0.008.

With `COc1ccc2[nH]cc(CCNC(C)=O)c2c1` [melatonin, N‐acetyl‐ 5‐methoxytryptamine], in [6] (3D7, 100 nM melatonin), the increase in parasitemia result is recorded as “approximately 10%” and the “parasitemia normalized to control, hormone only” value is listed as 110%. Besides, the “decrease in pfeik1 expression compared to control” value in series [10] (ring stage) turned out to be 40%. Besides, in series [10] (trophozoite and schizont stages), the “pfeik1 expression vs solvent” value was “no significant difference”.

Values taken from publication PMC7539967, “The Plasmodium falciparum eIK1 kinase (PfeIK1) is central for melatonin synchronization in the human malaria parasite. Melatotosil blocks melatonin action on parasite cell cycle” (Journal of Pineal Research, 2020).
